Measurements: patent publication US20040224958A1, “Pyridopyrimidinone derivatives for treatment of neurodegenerative disease” (priority 2000, published 2004)
Where two headings read alike, the source gives them in different places.

What was measured:
cdk4/D = cdk4/D (Homo sapiens, UniProt P11802); test: Cyclin-Dependent Kinase 4 (cdk4) Assay; type: biochemical; conditions: read-out: cdk4/D IC50
Cdk5/p25 = Cdk5/p25 (Homo sapiens, UniProt Q00535); test: Cyclin-Dependent Kinase 5 High Throughput Screening (cdk5-HTS) Assay; type: biochemical; conditions: high throughput screen
How it was run: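 IC50 determined from 33P incorporation into GST-RbCOOH captured on glutathione plates and read by scintillation counting. Reaction: 1.0 μg/mL Cdk5/p25, 20 μM [γ33P]ATP, pH 7.4 Tris buffer with MgCl2 and DTT, 30 min at room temperature, stopped with EDTA.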

cdk2/cyclinE = cdk2/cyclinE (Homo sapiens, UniProt P24941); test: Cyclin-Dependent Kinase Assay cdk2/cyclinE
cdk2/cyclinA = cdk2/cyclinA (Homo sapiens, UniProt P24941); test: Cyclin-Dependent Kinase Assay cdk2/cyclinA
cdc2/cyclinB = cdc2/cyclinB (Homo sapiens, UniProt P06493); test: Cyclin-Dependent Kinase Assay cdc2/cyclinB
Chain of cdc2/cyclinB (P06493 whole entry): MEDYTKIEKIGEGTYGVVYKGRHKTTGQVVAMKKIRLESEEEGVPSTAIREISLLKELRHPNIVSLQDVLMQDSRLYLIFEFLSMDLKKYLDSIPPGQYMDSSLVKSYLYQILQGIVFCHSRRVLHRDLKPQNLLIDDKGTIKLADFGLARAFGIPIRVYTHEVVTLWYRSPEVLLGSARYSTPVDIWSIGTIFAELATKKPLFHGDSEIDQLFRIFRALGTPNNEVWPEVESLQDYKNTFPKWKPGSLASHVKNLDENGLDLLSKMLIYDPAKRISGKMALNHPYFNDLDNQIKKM
Chain of cdc2/cyclinB (P14635 whole entry, further chain): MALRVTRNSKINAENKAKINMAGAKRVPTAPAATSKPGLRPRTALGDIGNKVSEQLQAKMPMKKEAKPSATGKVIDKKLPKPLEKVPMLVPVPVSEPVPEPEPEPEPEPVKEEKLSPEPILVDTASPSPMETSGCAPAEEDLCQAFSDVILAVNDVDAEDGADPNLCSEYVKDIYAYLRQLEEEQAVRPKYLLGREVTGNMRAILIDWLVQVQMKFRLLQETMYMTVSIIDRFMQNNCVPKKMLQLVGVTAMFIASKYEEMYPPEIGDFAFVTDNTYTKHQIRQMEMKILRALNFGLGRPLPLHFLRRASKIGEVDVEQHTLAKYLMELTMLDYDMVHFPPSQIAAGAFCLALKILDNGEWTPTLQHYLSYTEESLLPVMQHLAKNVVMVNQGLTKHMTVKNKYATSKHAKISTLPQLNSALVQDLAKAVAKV

Chain of cdk4/D (P11802 whole entry): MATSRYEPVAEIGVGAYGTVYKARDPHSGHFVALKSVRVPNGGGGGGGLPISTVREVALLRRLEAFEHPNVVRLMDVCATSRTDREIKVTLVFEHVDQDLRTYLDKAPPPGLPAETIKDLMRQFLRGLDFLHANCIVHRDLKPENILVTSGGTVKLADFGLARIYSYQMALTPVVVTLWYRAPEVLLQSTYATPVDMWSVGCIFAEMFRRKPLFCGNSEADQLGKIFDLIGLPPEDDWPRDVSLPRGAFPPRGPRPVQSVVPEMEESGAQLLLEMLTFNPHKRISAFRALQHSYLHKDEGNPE
Chain of cdk4/D (P24385 whole entry, further chain): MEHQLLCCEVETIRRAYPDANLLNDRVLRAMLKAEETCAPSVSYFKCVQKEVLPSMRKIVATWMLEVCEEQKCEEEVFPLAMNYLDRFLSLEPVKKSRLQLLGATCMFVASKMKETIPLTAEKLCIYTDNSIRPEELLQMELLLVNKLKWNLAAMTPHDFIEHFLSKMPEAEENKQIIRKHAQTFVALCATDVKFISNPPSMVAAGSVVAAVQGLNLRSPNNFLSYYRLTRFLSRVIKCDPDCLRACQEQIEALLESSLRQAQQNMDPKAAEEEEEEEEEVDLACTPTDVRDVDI

Row | Molecule | IC50 (cdk4/D) | IC50 (Cdk5/p25) | IC50 (cdk2/cyclinE; cdk2/E IC50) | IC50 (cdk2/cyclinA; cdk2/A IC50) | IC50 (cdc2/cyclinB) | IC50 (cdk2/cyclinE; read-out: cdk2/E IC50) | IC50 (cdk2/cyclinA; read-out: cdk2/A IC50) | IC50 (cdc2/cyclinB; read-out: cdk1/B IC50) | IC50 (cdk2/cyclinE) | IC50 (cdk2/cyclinA)
1 | CCCCn1c(=O)ccc2cnc(Nc3ccc(F)c(C(F)(F)F)c3)nc21 [Example 390, 8-Butyl-2-(4-fluoro-3-trifluoromethyl-phenylamino)-8H-pyrido[2,3-d]pyrimidin-7-one] | 1.1 µM | 0.084 µM | 0.085 µM | 0.47 µM | 0.22 µM | – | – | – | – | –
2 | CCC(C)n1c(=O)ccc2cnc(Nc3ccc(O)cc3F)nc21 (stereo not shown) [Example 451, 8-sec-Butyl-2-(2-fluoro-4-hydroxy-phenylamino)-8H-pyrido[2,3-d]pyrimidin-7-one] | 0.45 µM | 0.133 µM | 0.24 µM | 0.555 µM | 0.59 µM | – | – | – | – | –
3 | CCn1c(=O)ccc2cnc(Nc3ccc(S(N)(=O)=O)cc3)nc21 [Example 295, 4-(8-Ethyl-7-oxo-7,8-dihydro-pyrido[2,3-d]pyrimidin-2-ylamino)-benzenesulfonamide] | 0.95 µM | 0.064 µM | 0.058 µM | 0.13 µM | 0.39 µM | – | – | – | – | –
4 | CCC(CC)n1c(=O)ccc2cnc(Nc3ccc(C)c(C)c3)nc21 [Example 491, 2-(3,4-Dimethyl-phenylamino)-8-(I-ethyl-propyl)-8H-pyrido[2,3-d]pyrimidin-7-one] | 0.26 µM | 0.0444 µM | 0.179 µM | 0.436 µM | 0.151 µM | – | – | – | – | –
5 | CCn1c(=O)ccc2cnc(Nc3ccc4[nH]ccc4c3)nc21 [Example 621, 8-Ethyl-2-(1H-indol-5-ylamino)-8H-pyrido[2,3-d]pyrimidin-7-one] | 0.23 µM | 0.25 µM | 0.4 µM | 0.925 µM | 0.54 µM | – | – | – | – | –
6 | Cc1cc(Nc2ncc3ccc(=O)n(C(C)C)c3n2)ccc1Br [Example 442, 2-(4-Bromo-3-methyl-phenylamino)-8-isopropyl-8H-pyrido[2,3-d]pyrimidin-7-one] | 3.6 µM | 0.44 µM | 3.6 µM | 1.7 µM | 1.9 µM | – | – | – | – | –
7 | CCCCn1c(=O)ccc2cnc(Nc3cc(C)cc(C)c3)nc21 [Example 399, 8-Butyl-2-(3,5-dimethyl-phenylamino)-8H-pyrido[2,3-d]pyrimidin-7-one] | 0.92 µM | 0.014 µM | 0.05 µM | 0.31 µM | 0.063 µM | – | – | – | – | –
8 | CCCCn1c(=O)ccc2cnc(Nc3ccc(O)cc3F)nc21 [Example 382, 8-Butyl-2-(2-fluoro-4-hydroxy-phenylamino)-8H-pyrido[2,3-d]pyrimidin-7-one] | 0.67 µM | 0.59 µM | 0.32 µM | 1.55 µM | 1.3 µM | – | – | – | – | –
9 | CCC(CC)n1c(=O)ccc2cnc(Nc3ccc(C)c(F)c3)nc21 [Example 482, 8-(1-Ethyl-propyl)-2-(3-fluoro-4-methyl-phenylamino)-8H-pyrido[2,3-d]pyrimidin-7-one] | 0.166 µM | 0.0632 µM | – | – | 0.214 µM | – | – | – | 0.152 µM | 0.597 µM
10 | O=c1ccc2cnc(Nc3ccc4[nH]ncc4c3)nc2n1C1CCCC1 [Example 536, 8-Cyclopentyl-2-(1H-indazol-5-ylamino)-8H-pyrido[2,3-d]pyrimidin-7-one] | 0.025 µM | 0.0197 µM | 0.014 µM | 0.0315 µM | 0.0185 µM | – | – | – | – | –
11 | CCCCn1c(=O)ccc2cnc(Nc3ccc(Cl)c(C(F)(F)F)c3)nc21 [Example 401, 8-Butyl-2-(4-chloro-3-trifluoromethyl-phenylamino)-8H-pyrido[2,3-d]pyrimidin-7-one] | 1.3 µM | 0.292 µM | 0.86 µM | 0.88 µM | 1.9 µM | – | – | – | – | –
12 | CCCCn1c(=O)ccc2cnc(Nc3ccc4[nH]nnc4c3)nc21 [Example 380, 2-(1H-Benzotriazol-5-ylamino)-8-butyl-8H-pyrido[2,3-d]pyrimidin-7-one] | 0.285 µM | 0.0325 µM | 0.026 µM | 0.083 µM | 0.059 µM | – | – | – | – | –
13 | CCC(CC)n1c(=O)ccc2cnc(Nc3ccc4[nH]c5ccccc5c4c3)nc21 [Example 516, 2-(9H-Carbazol-3-ylamino)-8-(I-ethyl-propyl)-8H-pyrido[2,3-d]pyrimidin-7-one] | 0.028 µM | 0.033 µM | 0.095 µM | 0.28 µM | 0.062 µM | – | – | – | – | –

More lines, in order of falling IC50 (cdk4/D), values ahead:

Row | IC50 (cdk4/D) | IC50 (Cdk5/p25) | IC50 (cdk2/cyclinE; cdk2/E IC50) | IC50 (cdk2/cyclinA; cdk2/A IC50) | IC50 (cdc2/cyclinB) | IC50 (cdk2/cyclinE; read-out: cdk2/E IC50) | IC50 (cdk2/cyclinA; read-out: cdk2/A IC50) | IC50 (cdc2/cyclinB; read-out: cdk1/B IC50) | Molecule | IC50 (cdk2/cyclinE) | IC50 (cdk2/cyclinA)
14 | 3.25 µM | 0.72 µM | 1.16 µM | 2 µM | 1.25 µM | – | – | – | CCn1c(=O)ccc2cnc(Nc3ccc(O)cc3F)nc21 [Example 289, 8-Ethyl-2-(2-fluoro-4-hydroxy-phenylamino)-8H-pyrido[2,3-d]pyrimidin-7-one] | – | –
15 | 2 µM | 0.16 µM | 0.95 µM | 0.875 µM | 0.415 µM | – | – | – | CCCn1c(=O)ccc2cnc(Nc3ccc(OC)c(OC)c3)nc21 [Example 331, 2-(3,4-Dimethoxy-phenylamino)-8-propyl-8H-pyrido[2,3-d]pyrimidin-7-one] | – | –
16 | 1.65 µM | 0.375 µM | 0.451 µM | 2.64 µM | 0.669 µM | – | – | – | CCCn1c(=O)ccc2cnc(Nc3ccc([N+](=O)[O-])cc3F)nc21 [Example 320, 2-(2-Fluoro-4-nitro-phenylamino)-8-propyl-8H-pyrido[2,3-d]pyrimidin-7-one] | – | –
17 | 0.91 µM | 0.77 µM | 1.2 µM | 1.1 µM | 1.6 µM | – | – | – | CCCn1c(=O)ccc2cnc(Nc3ccc(O)c(C)c3)nc21 [Example 354, 2-(4-Hydroxy-3-methyl-phenylamino)-8-propyl-8H-pyrido[2,3-d]pyrimidin-7-one] | – | –
18 | 0.905 µM | 0.695 µM | 1.37 µM | 2.7 µM | 0.96 µM | – | – | – | O=c1ccc2cnc(Nc3ccc4[nH]ccc4c3)nc2n1CC(F)(F)F [Example 593, 2-(1H-Indol-5-ylamino)-8-(2,2,2-trifluoro-ethyl)-8H-pyrido[2,3-d]pyrimidin-7-one] | – | –
19 | 0.54 µM | 0.12 µM | – | – | – | 0.24 µM | 0.96 µM | 0.44 µM | 2-(3-Hydroxy-4-methoxy-phenylamino)-8-propyl-8H-pyrido[2,3-d]pyrimidin-7-one [Example 296] | – | –
20 | 0.505 µM | 0.052 µM | 0.05 µM | 0.117 µM | 0.0945 µM | – | – | – | O=c1ccc2cnc(Nc3ccc4[nH]nnc4c3)nc2n1CC1CC1 [Example 564, 2-(1H-Benzotriazol-5-ylamino)-8-cyclopropylmethyl-8H-pyrido[2,3-d]pyrimidin-7-one] | – | –
21 | 0.385 µM | 0.29 µM | 0.193 µM | 0.51 µM | 0.365 µM | – | – | – | CC(C)(C)OC(=O)Nc1ccc(Nc2ncc3ccc(=O)n(CC4CC4)c3n2)cc1 [Example 565, [4-(8-Cyclopropylmethyl-7-oxo-7,8-dihydro-pyrido[2,3-d]pyrimidin-2-ylamino)-phenyl]-carbamic acid tert-butyl ester] | – | –
22 | 0.35 µM | 0.15 µM | 0.44 µM | 0.31 µM | 0.18 µM | – | – | – | CCCn1c(=O)ccc2cnc(Nc3ccc(C(F)(F)F)cc3)nc21 [Example 361, 8-Propyl-2-(4-trifluoromethyl-phenylamino)-8H-pyrido[2,3-d]pyrimidin-7-one] | – | –
23 | 0.3 µM | 0.09 µM | 0.18 µM | 0.083 µM | 0.16 µM | – | – | – | CCCn1c(=O)ccc2cnc(Nc3ccc4cn[nH]c4c3)nc21 [Example 358, 2-(1H-Indazol-6-ylamino)-8-propyl-8H-pyrido[2,3-d]pyrimidin-7-one] | – | –
24 | 0.192 µM | 0.0125 µM | 0.0463 µM | 0.115 µM | 0.046 µM | – | – | – | CCC(CC)n1c(=O)ccc2cnc(Nc3ccc(OC)c(OC)c3)nc21 [Example 499, 2-(3,4-Dimethoxy-phenylamino)-8-(1-ethyl-propyl)-8H-pyrido[2,3-d]pyrimidin-7-one] | – | –
25 | 0.14 µM | 0.11 µM | 0.17 µM | 0.19 µM | 0.31 µM | – | – | – | O=c1ccc2cnc(Nc3cccc(O)c3)nc2n1CC1CC1 [Example 578, 8-Cyclopropylmethyl-2-(3-hydroxy-phenylamino)-8H-pyrido[2,3-d]pyrimidin-7-one] | – | –
26 | 0.14 µM | 0.07 µM | 0.28 µM | 2.1 µM | 0.23 µM | – | – | – | CCC(CC)n1c(=O)ccc2cnc(Nc3cc(OC)cc(C(F)(F)F)c3)nc21 [Example 508, 8-(1-Ethyl-propyl)-2-(3-methoxy-5-trifluoromethyl-phenylamino)-8H-pyrido[2,3-d]pyrimidin-7-one] | – | –
27 | 0.085 µM | 0.088 µM | 0.2 µM | 0.16 µM | 0.14 µM | – | – | – | CCC(CC)n1c(=O)ccc2cnc(Nc3ccc(C(F)(F)F)cc3)nc21 [Example 526, 8-(1-Ethyl-propyl)-2-(4-trifluoromethyl-phenylamino)-8H-pyrido[2,3-d]pyrimidin-7-one] | – | –
28 | 0.07 µM | 0.059 µM | 0.29 µM | 0.19 µM | 0.2 µM | – | – | – | Cc1ccc(Nc2ncc3ccc(=O)n(C4CCCC4)c3n2)cc1C [Example 549, 8-Cyclopentyl-2-(3,4-dimethyl-phenylamino)-8H-pyrido[2,3-d]pyrimidin-7-one] | – | –
29 | 0.051 µM | 0.0385 µM | 0.091 µM | 0.155 µM | 0.165 µM | – | – | – | CC(=O)Nc1ccc(Nc2ncc3ccc(=O)n(C(C)C)c3n2)cc1 [Example 414, N-[4-(8-Isopropyl-7-oxo-7,8-dihydro-pyrido[2,3-d]pyrimidin-2-ylamino)-phenyl]-acetamide] | – | –
